{"source": "ChEMBL document CHEMBL4811228", "about": "“Design, Synthesis, and Activity Evaluation of Novel Acyclic Nucleosides as Potential Anticancer Agents In Vitro and In Vivo” (J Med Chem, 2021)", "key": {"[1]": {"tested_on": "SW480", "experiment": "Antiproliferative activity against human SW480 cells assessed as reduction in cell viability incubated for 48 hrs by MTT assay", "format": "functional, cell-based", "conditions": "SW480, 48 h"}, "[2]": {"tested_on": "HCT-116", "experiment": "Potency index, ratio of 5-FU IC50 to test compound IC50 for antiproliferative activity against human HCT-116 cells", "format": "functional"}, "[3]": {"tested_on": "SW480", "experiment": "Potency index, ratio of 5-FU IC50 to test compound IC50 for antiproliferative activity against human SW480 cells", "format": "functional"}, "[4]": {"tested_on": "HCT-116", "experiment": "Induction of cell cycle arrest in human HCT-116 cells assessed as accumulation at G0/G1 phase at 16 uM incubated for 24 hrs by propidium iodide staining based flow cytometry", "format": "functional"}, "[5]": {"tested_on": "SW480", "experiment": "Induction of apoptosis in human SW480 cells assessed as viable cells at 2 uM incubated for 48 hrs by Annexin V-FITC/PI staining based flow cytometry (reference value: 90.56%)", "format": "functional", "conditions": "read-out: Activity"}, "[6]": {"tested_on": "SW480", "experiment": "Induction of apoptosis in human SW480 cells assessed as viable cells at 4 uM incubated for 48 hrs by Annexin V-FITC/PI staining based flow cytometry (reference value: 90.56%)", "format": "functional", "conditions": "read-out: Activity"}, "[7]": {"tested_on": "SW480", "experiment": "Induction of apoptosis in human SW480 cells assessed as early apoptotic cells at 4 uM incubated for 48 hrs by Annexin V-FITC/PI staining based flow cytometry (reference value: 1.87%)", "format": "functional"}, "[8]": {"tested_on": "SW480", "experiment": "Induction of apoptosis in human SW480 cells assessed as necrotic cells at 4 uM incubated for 48 hrs by Annexin V-FITC/PI staining based flow cytometry (reference value: 2.9%)", "format": "functional"}, "[9]": {"tested_on": "SW480", "experiment": "Induction of apoptosis in human SW480 cells assessed as viable cells at 8 uM incubated for 48 hrs by Annexin V-FITC/PI staining based flow cytometry (reference value: 90.56%)", "format": "functional", "conditions": "read-out: Activity"}, "[10]": {"tested_on": "SW480", "experiment": "Induction of apoptosis in human SW480 cells assessed as early apoptotic cells at 8 uM incubated for 48 hrs by Annexin V-FITC/PI staining based flow cytometry (reference value: 1.87%)", "format": "functional"}, "[11]": {"tested_on": "SW480", "experiment": "Induction of apoptosis in human SW480 cells assessed as necrotic cells at 8 uM incubated for 48 hrs by Annexin V-FITC/PI staining based flow cytometry (reference value: 2.9%)", "format": "functional"}, "[12]": {"tested_on": "SW480", "experiment": "Induction of apoptosis in human SW480 cells assessed as early apoptotic cells at 16 uM incubated for 48 hrs by Annexin V-FITC/PI staining based flow cytometry (reference value: 1.87%)", "format": "functional"}, "[13]": {"tested_on": "SW480", "experiment": "Induction of apoptosis in human SW480 cells assessed as late apoptotic cells at 16 uM incubated for 48 hrs by Annexin V-FITC/PI staining based flow cytometry (reference value: 4.67%)", "format": "functional"}, "[14]": {"tested_on": "SW480", "experiment": "Induction of apoptosis in human SW480 cells assessed as late apoptotic cells at 32 uM incubated for 48 hrs by Annexin V-FITC/PI staining based flow cytometry (reference value: 4.67%)", "format": "functional"}, "[15]": {"tested_on": "SW480", "experiment": "Induction of apoptosis in human SW480 cells assessed as necrotic cells at 32 uM incubated for 48 hrs by Annexin V-FITC/PI staining based flow cytometry (reference value: 2.9%)", "format": "functional"}, "[16]": {"tested_on": "HCT-116", "experiment": "Induction of apoptosis in human HCT-116 cells at 32 uM incubated for 48 hrs by Annexin V-FITC/PI staining based flow cytometry (reference value: 12%)", "format": "functional"}, "[17]": {"tested_on": "HCT-116", "experiment": "Induction of apoptosis in human HCT-116 cells incubated for 48 hrs by Annexin V-FITC/PI staining based flow cytometry", "format": "functional, cell-based", "conditions": "dose 2-32 µM"}, "[18]": {"tested_on": "SW480", "experiment": "Induction of apoptosis in human SW480 cells assessed as increase in Bax protein expression at 2 to 16 uM incubated for 48 hrs by western blot analysis", "format": "functional, cell-based", "conditions": "dose 2-16 µM"}, "[19]": {"tested_on": "SW480", "experiment": "Induction of apoptosis in human SW480 cells assessed as increase in cleaved PARP protein expression at 2 to 16 uM incubated for 48 hrs by western blot analysis", "format": "functional, cell-based", "conditions": "dose 2-16 µM"}, "[20]": {"tested_on": "SW480", "experiment": "Induction of mitochondrial membrane potential loss in human SW480 cells assessed as cells with low MMP emitting green fluorescence at 2 uM incubated for 24 hrs by JC-1 staining based flow cytometry (reference value: 17.96%)", "format": "functional"}, "[21]": {"tested_on": "SW480", "experiment": "Induction of mitochondrial membrane potential loss in human SW480 cells assessed as cells with low MMP emitting green fluorescence at 4 uM incubated for 24 hrs by JC-1 staining based flow cytometry (reference value: 17.96%)", "format": "functional"}, "[22]": {"tested_on": "SW480", "experiment": "Induction of mitochondrial membrane potential loss in human SW480 cells assessed as cells with low MMP emitting green fluorescence at 8 uM incubated for 24 hrs by JC-1 staining based flow cytometry (reference value: 17.96%)", "format": "functional"}, "[23]": {"tested_on": "SW480", "experiment": "Induction of mitochondrial membrane potential loss in human SW480 cells assessed as cells with high MMP emitting red fluorescence at 8 uM incubated for 24 hrs by JC-1 staining based flow cytometry (reference value: 64.2%)", "format": "functional"}, "[24]": {"tested_on": "SW480", "experiment": "Induction of apoptosis in human SW480 cells at 4 to 8 uM pretreated with pan-caspase inhibitor, Q-VD-OPh followed by incubation with compound for 48 hrs by Annexin V-FITC/PI staining based flow cytometry", "format": "functional, cell-based", "conditions": "dose 4-8 µM"}, "[25]": {"tested_on": "HCT-116", "experiment": "Inhibition of colony formation in human HCT-116 cells at 2 to 8 uM incubated for 48 hrs followed by culture medium replenishment for every 72 hrs and measured after 14 days by crystal violet staining based analysis", "format": "functional, cell-based", "conditions": "dose 2-8 µM, time 14.0 day"}, "[26]": {"tested_on": "SW480", "experiment": "Inhibition of colony formation in human SW480 cells at 2 to 8 uM incubated for 48 hrs followed by culture medium replenishment for every 72 hrs and measured after 14 days by crystal violet staining based analysis", "format": "functional, cell-based", "conditions": "dose 2-8 µM, time 14.0 day"}, "[27]": {"tested_on": "SW480", "experiment": "Inhibition of colony formation in human SW480 cells at >=16 uM incubated for 48 hrs followed by culture medium replenishment for every 72 hrs and measured after 14 days by crystal violet staining based analysis", "format": "functional", "conditions": "dose microM >=16; time 14 day"}, "[28]": {"experiment": "Half life in mouse liver microsomes at 0.1 uM preincubated for 10 mins followed by NADPH addition and measured up to 60 mins by LC-MS/MS analysis", "format": "ADME, Microsome", "conditions": "time 70 min"}, "[29]": {"experiment": "Acute toxicity in BALB/c mouse assessed as animal survival at 300 mg/kg, ip administered per 4 hrs for 4 times and measured everyday for 14 days (reference value: 100%)", "format": "organism-based", "conditions": "in vivo, time 14 day"}, "[30]": {"experiment": "Acute toxicity in BALB/c mouse assessed as animal survival at 250 mg/kg, ip administered per 4 hrs for 4 times and measured everyday for 14 days (reference value: 100%)", "format": "organism-based", "conditions": "in vivo, time 14 day"}, "[31]": {"experiment": "Acute toxicity in BALB/c mouse assessed as animal survival at 150 mg/kg, ip administered per 4 hrs for 4 times and measured everyday for 14 days (Rb =100%)", "format": "organism-based", "conditions": "in vivo, time 14 day"}, "[32]": {"experiment": "Acute toxicity in ip dosed BALB/c mouse administered per 4 hrs for 4 times and measured everyday for 14 days", "format": "organism-based", "conditions": "in vivo, time 14 day"}, "[33]": {"tested_on": "SW480", "experiment": "Antitumor activity against human SW480 cells xenografted in ip dosed BALB/c mouse assessed as reduction in tumor volume administered every 2 days for 12 days", "format": "functional, organism-based", "conditions": "dose 25-50 mg/kg, time 12.0 day"}, "[34]": {"tested_on": "SW480", "experiment": "Antitumor activity against human SW480 cells xenografted in ip dosed BALB/c mouse assessed as reduction in tumor weight administered every 2 days for 12 days", "format": "functional, organism-based", "conditions": "dose 25-50 mg/kg, time 12.0 day"}, "[35]": {"experiment": "Toxicity in BALB/c mouse xenografted with human SW480 cells assessed as decrease in body weight at 25 to 50 mg/kg, ip administered every 2 days for 12 days", "format": "organism-based", "conditions": "in vivo, 288 h, dose 25-50 mg/kg, time 12 day"}}, "note": "Activity calls are given as the source filed them. The calls are words filed in the database; no cut-off is given here.", "data": [{"compound": "CCCCCCCCCC(CCO)n1cnc2c(Cl)ncnc21", "note": "(racemic)", "values": [{"measurement": "IC50", "setting": "[1]", "value": 1150, "unit": "nM"}, {"measurement": "Ratio IC50", "setting": "[2]", "value": 10}, {"measurement": "Ratio IC50", "setting": "[3]", "value": 10}, {"measurement": "Activity", "setting": "[4]", "value": "Active"}, {"measurement": "viability at 2 µM", "setting": "[5]", "value": 73.9, "unit": "%"}, {"measurement": "viability at 4 µM", "setting": "[6]", "value": 71.5, "unit": "%"}, {"measurement": "Activity", "setting": "[7]", "value": 11.67, "unit": "%"}, {"measurement": "Activity", "setting": "[8]", "value": 7.76, "unit": "%"}, {"measurement": "viability at 8 µM", "setting": "[9]", "value": 56.5, "unit": "%"}, {"measurement": "Activity", "setting": "[10]", "value": 11.03, "unit": "%"}, {"measurement": "Activity", "setting": "[11]", "value": 16.97, "unit": "%"}, {"measurement": "Activity", "setting": "[12]", "value": 24.5, "unit": "%"}, {"measurement": "Activity", "setting": "[13]", "value": 20.5, "unit": "%"}, {"measurement": "Activity", "setting": "[14]", "value": 13.76, "unit": "%"}, {"measurement": "Activity", "setting": "[15]", "value": 3.89, "unit": "%"}, {"measurement": "Activity", "setting": "[16]", "value": 66, "unit": "%"}, {"measurement": "Activity", "setting": "[17]", "value": "Dose-Dependent Effect"}, {"measurement": "Activity", "setting": "[18]", "value": "Active"}, {"measurement": "Activity", "setting": "[19]", "value": "Active"}, {"measurement": "Activity", "setting": "[20]", "value": 28.88, "unit": "%"}, {"measurement": "Activity", "setting": "[21]", "value": 33.02, "unit": "%"}, {"measurement": "Activity", "setting": "[22]", "value": 36.6, "unit": "%"}, {"measurement": "Activity", "setting": "[23]", "value": 31.56, "unit": "%"}, {"measurement": "Activity", "setting": "[24]", "value": "Active"}, {"measurement": "inhibition", "setting": "[25]", "value": "Active"}, {"measurement": "inhibition", "setting": "[26]", "value": "Active"}, {"measurement": "inhibition (INH)", "setting": "[27]", "value": 100, "unit": "%"}, {"measurement": "half-life at 0.1 µM", "setting": "[28]", "value": 1, "unit": "min"}, {"measurement": "survival at 336 h", "setting": "[29]", "value": 0, "unit": "%"}, {"measurement": "survival at 336 h", "setting": "[30]", "value": 20, "unit": "%"}, {"measurement": "survival at 336 h", "setting": "[31]", "value": 100, "unit": "%"}, {"measurement": "LD50 at 336 h", "setting": "[32]", "value": 220, "unit": "mg/kg"}, {"measurement": "Activity", "setting": "[33]", "value": "Dose-Dependent Effect"}, {"measurement": "Activity", "setting": "[34]", "value": "Dose-Dependent Effect"}, {"measurement": "Activity", "setting": "[35]", "value": "Non-Toxic"}]}]}
